Active and inactive are the calls of the source. The rule behind the calls is not given here.
Tests used:
MDA-MB-231 = test: Antiproliferative activity against human MDA-MB-231 cells assessed as growth inhibition incubated for 72 hrs by celltiter-glo assay; type: functional
DU-145 = test: Antiproliferative activity against human DU-145 cells assessed as of viable cell signal at minimum maximum cell growth incubated for 72 hrs by celltiter-glo assay relative to control; type: functional
COLO 205 [1] = test: Antitumor activity against human COLO 205 cells xenografted in Nude mouse assessed as increase in pHH3 level at 50 to 100 mg/kg, ip measured at 24 to 48 hrs by immunohistochemistry analysis; type: functional, organism-based; details: dose 50-100 mg/kg, time 24-48 hrs
NCI-H157 = test: Antiproliferative activity against human NCI-H157 cells assessed as growth inhibition incubated for 72 hrs by celltiter-glo assay; type: functional
NCI-H522 = test: Antiproliferative activity against human NCI-H522 cells assessed as viable cell signal at maximum growth inhibition incubated for 72 hrs by celltiter-glo assay relative to control; type: functional
T47D = test: Antiproliferative activity against human T47D cells assessed as viable cell signal at maximum growth inhibition incubated for 72 hrs by celltiter-glo assay relative to control; type: functional
SCLC = test: Antiproliferative activity against human SCLC cells assessed as growth inhibition incubated for 72 hrs by celltiter-glo assay; type: functional
MCF7 = test: Antiproliferative activity against human MCF7 cells assessed as of viable cell signal at minimum maximum cell growth incubated for 72 hrs by celltiter-glo assay relative to control; type: functional
HCC1954 = test: Antiproliferative activity against human HCC1954 cells assessed as viable cell signal at maximum growth inhibition incubated for 72 hrs by celltiter-glo assay relative to control; type: functional
RKO [2] = test: Antiproliferative activity against human RKO cells assessed as viable cell signal at maximum growth inhibition incubated for 72 hrs by celltiter-glo assay relative to control; type: functional
SK-MEL-28 = test: Antiproliferative activity against human SK-MEL-28 cells assessed as growth inhibition incubated for 72 hrs by celltiter-glo assay; type: functional
A549 [3] = test: Induction of mitotic arrest in human A549 cells assessed as effect on pHH3 level at 10 to 250 nmol/L incubated for 19 hrs by ELISA analysis; type: functional, cell-based; details: dose 10-250 nmol/L
BXPC-3 = test: Antiproliferative activity against human BXPC-3 cells assessed as growth inhibition incubated for 72 hrs by celltiter-glo assay; type: functional
U2OS = test: Antiproliferative activity against human U2OS cells assessed as growth inhibition incubated for 72 hrs by celltiter-glo assay; type: functional
A2780 = test: Antiproliferative activity against human A2780 cells assessed as viable cell signal at maximum growth inhibition incubated for 72 hrs by celltiter-glo assay relative to control; type: functional
COLO 205 [4] = test: Antitumor activity against human COLO 205 cells xenografted in Nude mouse assessed as increase in pHH3 level at 50 to 100 mg/kg, ip administered one dose every 2 day repeated for 12 days by immunohistochemistry analysis; type: functional, organism-based; details: dose 50-100 mg/kg, time 12.0 day
RKO [5] = test: Antiproliferative activity against human RKO cells assessed as of viable cell signal at minimum maximum cell growth incubated for 72 hrs by celltiter-glo assay relative to control; type: functional
A549 [6] = test: Induction of mitotic arrest in human A549 cells assessed as micronucleation at 20 nmol/L incubated for 16 hrs by DAPI staining based confocal microscopic analysis; type: functional, cell-based
[7] = target: Calcium/calmodulin-dependent protein kinase type II subunit delta (Homo sapiens) (UniProt Q13557); test: Inhibition recombinant human CAMKII-delta at 10 uM relative to control
Chain of Calcium/calmodulin-dependent protein kinase type II subunit delta (Homo sapiens) (Q13557 whole entry, the tested form may be a part): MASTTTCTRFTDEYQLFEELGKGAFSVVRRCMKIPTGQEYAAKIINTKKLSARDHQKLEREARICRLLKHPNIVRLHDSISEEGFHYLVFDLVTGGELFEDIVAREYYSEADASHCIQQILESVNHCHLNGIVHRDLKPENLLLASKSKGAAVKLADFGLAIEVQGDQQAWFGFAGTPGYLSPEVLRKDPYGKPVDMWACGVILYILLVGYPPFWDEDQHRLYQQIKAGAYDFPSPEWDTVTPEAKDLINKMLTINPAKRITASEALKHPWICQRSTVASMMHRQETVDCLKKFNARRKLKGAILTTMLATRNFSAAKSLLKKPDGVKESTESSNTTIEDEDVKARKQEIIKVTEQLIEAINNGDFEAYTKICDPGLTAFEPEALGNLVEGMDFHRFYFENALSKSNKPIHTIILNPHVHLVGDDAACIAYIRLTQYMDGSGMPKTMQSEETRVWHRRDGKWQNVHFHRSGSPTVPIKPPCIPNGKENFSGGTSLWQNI

[8] = target: PAS domain-containing serine/threonine-protein kinase (Homo sapiens) (UniProt Q96RG2); test: Inhibition of recombinant human PASK at 10 uM relative to control
Chain of PAS domain-containing serine/threonine-protein kinase (Homo sapiens) (Q96RG2 whole entry, the tested form may be a part): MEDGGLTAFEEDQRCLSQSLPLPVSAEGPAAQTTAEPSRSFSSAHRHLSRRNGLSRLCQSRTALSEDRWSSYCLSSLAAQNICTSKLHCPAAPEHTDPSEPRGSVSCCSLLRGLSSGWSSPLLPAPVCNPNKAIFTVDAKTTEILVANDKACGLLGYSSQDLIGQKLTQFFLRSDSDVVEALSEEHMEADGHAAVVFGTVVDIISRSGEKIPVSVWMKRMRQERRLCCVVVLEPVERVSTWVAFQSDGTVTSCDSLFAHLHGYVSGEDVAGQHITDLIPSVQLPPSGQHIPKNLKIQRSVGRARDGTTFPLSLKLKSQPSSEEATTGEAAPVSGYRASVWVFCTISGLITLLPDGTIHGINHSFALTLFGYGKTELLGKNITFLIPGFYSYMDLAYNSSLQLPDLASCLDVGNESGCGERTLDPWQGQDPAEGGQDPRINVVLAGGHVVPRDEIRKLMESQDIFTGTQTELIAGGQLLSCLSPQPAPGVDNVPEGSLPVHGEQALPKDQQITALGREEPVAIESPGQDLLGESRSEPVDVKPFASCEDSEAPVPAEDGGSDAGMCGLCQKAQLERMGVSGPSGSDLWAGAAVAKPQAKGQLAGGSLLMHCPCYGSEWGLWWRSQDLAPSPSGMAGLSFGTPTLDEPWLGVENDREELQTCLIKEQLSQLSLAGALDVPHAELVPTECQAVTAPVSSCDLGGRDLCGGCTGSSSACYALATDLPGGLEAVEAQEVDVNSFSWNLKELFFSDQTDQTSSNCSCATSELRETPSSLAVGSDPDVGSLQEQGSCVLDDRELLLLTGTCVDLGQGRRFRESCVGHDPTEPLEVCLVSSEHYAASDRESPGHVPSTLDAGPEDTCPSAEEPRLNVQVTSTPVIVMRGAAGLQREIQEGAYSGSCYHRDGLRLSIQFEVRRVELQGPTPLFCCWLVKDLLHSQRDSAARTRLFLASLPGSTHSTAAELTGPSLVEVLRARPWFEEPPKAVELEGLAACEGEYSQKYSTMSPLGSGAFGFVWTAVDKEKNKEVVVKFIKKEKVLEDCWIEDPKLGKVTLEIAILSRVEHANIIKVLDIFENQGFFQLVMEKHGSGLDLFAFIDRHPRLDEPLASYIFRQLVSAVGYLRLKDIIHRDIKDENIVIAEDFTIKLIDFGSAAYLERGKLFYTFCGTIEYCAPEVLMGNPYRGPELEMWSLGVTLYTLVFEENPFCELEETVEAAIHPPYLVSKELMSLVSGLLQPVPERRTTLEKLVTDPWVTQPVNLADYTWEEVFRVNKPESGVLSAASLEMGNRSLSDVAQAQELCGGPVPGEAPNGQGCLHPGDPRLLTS

Raji = test: Antiproliferative activity against human Raji cells assessed as growth inhibition incubated for 72 hrs by celltiter-glo assay; type: functional
COLO 205 [9] = test: Antitumor activity against human COLO 205 cells xenografted in Nude mouse assessed as tumor regression at 50 mg/kg, ip administered for 12 days; type: functional, organism-based; details: time 12.0 day
U-87 MG = test: Antiproliferative activity against human U-87 MG cells assessed as growth inhibition incubated for 72 hrs by celltiter-glo assay; type: functional, U-87MG ATCC
HCT-116 = test: Antiproliferative activity against human HCT-116 cells assessed as of viable cell signal at minimum maximum cell growth incubated for 72 hrs by celltiter-glo assay relative to control; type: functional
NCI-H1299 [10] = test: Antiproliferative activity against human NCI-H1299 cells assessed as of viable cell signal at minimum maximum cell growth incubated for 72 hrs by celltiter-glo assay relative to control; type: functional
NCI-H1299 [11] = test: Antiproliferative activity against human NCI-H1299 cells assessed as viable cell signal at maximum growth inhibition incubated for 72 hrs by celltiter-glo assay relative to control; type: functional
SK-OV-3 = test: Antiproliferative activity against human SK-OV-3 cells assessed as viable cell signal at maximum growth inhibition incubated for 72 hrs by celltiter-glo assay relative to control; type: functional
[12] = target: Serine/threonine-protein kinase PLK3 (Homo sapiens) (UniProt Q9H4B4); test: Inhibition of N-terminal his6-tagged recombinant human PLK3 (19 to 301 residues) expressed in baculovirus Sf21 insect cells at 10 uM relative to control
Chain of Serine/threonine-protein kinase PLK3 (Homo sapiens) (Q9H4B4 whole entry, looked up, the tested form may be a part): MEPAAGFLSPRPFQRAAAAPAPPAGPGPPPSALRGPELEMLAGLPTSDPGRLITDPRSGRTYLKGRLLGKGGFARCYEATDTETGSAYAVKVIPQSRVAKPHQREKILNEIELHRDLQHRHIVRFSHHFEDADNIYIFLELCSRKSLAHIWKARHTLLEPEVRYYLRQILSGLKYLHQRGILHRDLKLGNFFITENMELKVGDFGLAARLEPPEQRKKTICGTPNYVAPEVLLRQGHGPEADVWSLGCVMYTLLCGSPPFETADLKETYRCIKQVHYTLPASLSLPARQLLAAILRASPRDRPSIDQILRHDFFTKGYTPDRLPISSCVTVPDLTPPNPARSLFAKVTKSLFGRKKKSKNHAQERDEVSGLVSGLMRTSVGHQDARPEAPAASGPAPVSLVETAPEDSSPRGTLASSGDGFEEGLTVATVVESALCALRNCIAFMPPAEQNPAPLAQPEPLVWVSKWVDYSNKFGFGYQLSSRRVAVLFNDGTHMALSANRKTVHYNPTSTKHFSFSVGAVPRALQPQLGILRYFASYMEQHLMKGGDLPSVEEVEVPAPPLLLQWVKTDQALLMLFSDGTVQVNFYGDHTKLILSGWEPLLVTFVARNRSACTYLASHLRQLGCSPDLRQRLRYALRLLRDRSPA

Compound: C[C@@H](Oc1cc(-n2cnc3ccc(CN4CCN(C)CC4)cc32)sc1C(N)=O)c1ccccc1C(F)(F)F [GSK-461364]
- GI50 (MDA-MB-231): 9.15 nM
- Emin (DU-145): 69.1%
- Activity (COLO 205 [1]): Active
- GI50 (NCI-H157): 25.2 nM
- Emax (NCI-H522): 264%
- Emax (T47D): 320%
- GI50 (SCLC): 17.4 nM
- Emin (MCF7): 125.4%
- Emax (HCC1954): 280%
- Emax (RKO [2]): 456%
- GI50 (SK-MEL-28): 381 nM
- Activity (A549 [3]): Active
- GI50 (BXPC-3): 23.1 nM
- GI50 (U2OS): 41.7 nM
- Emax (A2780): 977%
- Activity (COLO 205 [4]): Active
- Emin (RKO [5]): 218%
- Activity (A549 [6]): Active
- inhibition [7]: 88%
- inhibition [8]: 63%
- GI50 (Raji): 25.3 nM
- Activity (COLO 205 [9]): Active
- GI50 (U-87 MG): 7.45 nM
- Emin (HCT-116): 157.3%
- Emin (NCI-H1299 [10]): 44.4%
- Emax (NCI-H1299 [11]): 495%
- Emax (SK-OV-3): 345%
- inhibition [12]: 64%
